According to US7063946B2, “Methods, reagents, kits and apparatus for protein function analysis” (Meso Scale Technologies, LLC., priority 2001, dated 2006):
Where a SMILES comes first, the peptide text is derived from it.

What was measured:
[1] = system: N-end rule pathway ubiquitylation in reticulocyte lysate; test: ECL ubiquitylation assay using Sulfo-TAG-labeled streptavidin and IPR plate coated with FK2 antibody; type: biochemical, rabbit; conditions: RGS4 plasmid; for fold reduction of the RGS4 ECL signal in the presence of dipeptide inhibitor: 1 mM dipeptide; for IPR readings, Experiment 1 / IPR readings, Experiment 2: 1 mM dipeptide inhibitor with 50 μM bestatin
Protocol: Binding Buffer 2 (BB2) refers to 25 mM Tris-HCl buffer pH 7.4 containing 100 mM NaCl, 0.05 mM Na3VO4, 0.004% TritonX-100, 2 mM DTT and protease inhibitors (protease inhibitor cocktail, EDTA free, Roche Applied Science). Proteins were produced by coupled transcription/translation using TnT reaction mixes (Promega Corp, WI). The TNT Quick coupled transcription-translation system (Promega) contains rabbit reticulocyte lysate pre-mixed with most of the reaction components necessary to carry out transcription and translation in vitro (TNT mix), including all the amino acids except methionine. Unless otherwise noted, biotin-labeled in vitro translated proteins were produced in reaction mixtures that contained 8–30 μg/ml of a selected plasmid encoding protein of interest, 5 μl of TNT T7 Quick reticulocyte lysate mix (Promega Corp, WI) or TnT SP6 Quick Coupled Transcription/Translation System (Promega Corp, WI), 20 μM methionine, 50 μM MG-132 (Calbiochem, proteasome inhibitor to inhibit degradation of ubiquitylated proteins by proteasome) and 20 μg/ml biotinylated Lys-tRNA (transcend tRNA, Promega). The reactions were allowed to proceed for 20–90 min at 30° C. The reactions were stopped by the addition of BB1 supplemented with 20 mM AMP-PNP (Sigma, a non-hydrolyzable ATP analog), 20 mM N-ethylmaleimide (Sigma, an irreversible inhibitor of deubiquitylating enzymes) or, alternatively, by the addition of BB2. BB1 was used in screens involving the ubiquitination pathway. BB2 was used for other assay formats. The produced proteins were used in the assays of interest with or without further purification.
Transcription-translation reaction mixtures were prepared as described in the Example 1 except that no labeled ubiquitin was added. Some reactions also contained 1 mM dipeptide inhibitor of the N-end rule pathway (either Arg-β-Ala, or Trp-Ala) together with 50 μM bestatin as indicated (Table 2). The reaction was allowed to proceed for 20 min at 30° C. Then 1 μl of the reaction was mixed with 50 μl of BB1 supplemented with 20 mM AMP-PNP, 20 mM N-ethylmaleimide, and 2 μg/ml Sulfo-TAG-labeled streptavidin in a well of an IPR plate coated with an anti-ubiquitin antibody (FK2 antibody, Affiniti). […] In a typical assay the presence of RGS4-encoding plasmid produced a 30–100 fold higher ECL signal compared to the empty vector (FIG. 2, Table 2). This signal was reduced 3–4 fold in the presence of Arg-β-Ala (a type 1 inhibitor of the N-end rule pathway), but not in the presence of Trp-Ala (a type 2 inhibitor of the N-end rule pathway) in agreement with the previous report that RGS4 is a type 1 N-end rule substrate in reticulocyte lysates (Davydov and Varshavsky, 2000, J. Biol. Chem., 275:22931–22941). In the same assay RGS4 produced 3–5 fold higher ECL signal compared to RGS4C2V, when the same amounts of the corresponding plasmids were added to the reaction mixtures (Table 2).

[2] = system: N-end rule pathway ubiquitylation in reticulocyte lysates; test: ECL ubiquitylation assay of EST clone proteins, FK2 antibody coated IPR plate; type: biochemical, rabbit
Protocol: The following EST clones in bacteria were obtained: IMAGE ID #, 3446518, 3446518, 3446518, 3914731 (RGS4), 3914731 (RGS4), 3914731 (RGS4) (Incyte, Palo Alto). Bacteria containing EST clones were grown in 2 ml LB with 50 μg/ml Amp, and DNA was isolated using QIAprep Spin Miniprep Kit (Qiagen). DNA yield was 5–20 μg.
Proteins were prepared from the EST clones in transcription-translation reaction mixtures (total volume 12.5 uL) as described in the Materials and Methods except for the addition of 1 μM Ub aldehyde (Calbiochem). Then 1 μl of the reaction product was mixed with 50 μl of BB1 supplemented with 20 mM AMP-PNP, 20 mM N-ethylmaleimide and 2 μg/ml Sulfo-TAG-labeled streptavidin in to each well of an IPR plate coated with FK2 antibody.
As previously reported, RGS4 is a substrate of the N-end rule-dependent ubiquitylation in reticulocyte lysates (Davydov and Varshavsky, 2000, J. Biol. Chem., 275:22931–22941). To determine if the protein produced from clone 3446518 was similarly ubiquitylated through the N-end rule pathway, the ECL ubiquitylation assay was performed in the presence of dipeptide inhibitors Arg-β-Ala (type 1 inhibitor of the N-end rule pathway), or Trp-Ala (type 2 inhibitor of the same pathway). As was shown on FIG. 2, the RGS4 signal was reduced 3–4 fold in the presence of Arg-β-Ala (a type 1 inhibitor of the N-end rule pathway), but not in the presence of Trp-Ala (a type 2 inhibitor of the N-end rule pathway) in agreement with the previous report that RGS4 is a type 1 N-end rule substrate in reticulocyte lysates (Davydov and Varshavsky, 2000, J. Biol. Chem., 275:22931–22941). In contrast, the dipeptides had little effect on the assay signal from clone 3446518 (FIG. 2). Thus, a different pathway of the ubiquitin system mediates ubiquitylation of the protein produced from clone 3446518.

[3] = clone 3446518 in the presence of dipeptide inhibitor
[4] = clone 3914731 (RGS4) in the presence of dipeptide inhibitor

Row | Structure (SMILES) | fold reduction of the RGS4 ECL signal in the presence of dipeptide inhibitor [1] | IPR readings, Experiment 1 [1] | IPR readings, Experiment 2 [1] | ECL readings, Experiment 1 [2, 3] | ECL readings, Experiment 2 [2, 3] | ECL readings, Experiment 3 [2, 3] | ECL readings, Experiment 1 [2, 4] | ECL readings, Experiment 2 [2, 4] | ECL readings, Experiment 3 [2, 4] | fold reduction of the RGS4 signal in the presence of dipeptide inhibitor ([2]; RGS4)
1 | C[C@H](NC(=O)[C@@H](N)Cc1c[nH]c2ccccc12)C(=O)O [Trp-Ala] (H-Trp-Ala-OH) | not | 19196 | 19268 | 11249 | 11550 | 11464 | 41229 | 40401 | 38552 | –
2 | N=C(N)NCCC[C@H](N)C(=O)NCCC(=O)O [Arg-β-Ala] | 3–4 fold | 6224 | 6184 | 10484 | 10829 | 9665 | 15074 | 15016 | 14555 | 3–4 fold
